Test results: publication PMC4941645, “Oxidative Stress Induced by Pt(IV) Pro-drugs Based on the Cisplatin Scaffold and Indole Carboxylic Acids in Axial Position” (Scientific Reports, 2016)

What was measured:
[1] = system: 2008 ovarian cancer cells; experiment: MTT cytotoxicity test, cisplatin-sensitive 2008; type: cell-based, human; conditions: 2008 cisplatin-sensitive, 72 h, ± S.D.
Description: The cytotoxic properties of the complexes were also evaluated in a pair of tumor cell lines suitably selected for their sensitivity and resistance to cisplatin (adenocarcinoma cells 2008/C13^*). Cross-resistance profiles were evaluated by means of the resistance factor (RF), defined as the ratio between IC50 values calculated for the resistant cells and those obtained with the sensitive ones (Table 2). The phenomenon of cisplatin resistance is multifactorial in nature. Nevertheless, the main molecular mechanisms involved in drug resistance in C13* cancer cells have largely been identified. Indeed, in this cell line resistance is correlated to high cellular glutathione and thioredoxin reductase levels, reduced cellular drug uptake and enhanced repair of DNA damage. […] The RF values calculated for all derivatives were six- to nine-fold lower than that of cisplatin, clearly indicating the absence of cross-resistance.
(§1) Cisplatin was dissolved in 0.9% NaCl solution.
Triplicate cultures were established for each treatment.

[2] = system: C13* cisplatin-resistant ovarian cancer cells; experiment: MTT cytotoxicity test, cisplatin-resistant C13*; type: cell-based, human
Description: The cytotoxic properties of the complexes were also evaluated in a pair of tumor cell lines suitably selected for their sensitivity and resistance to cisplatin (adenocarcinoma cells 2008/C13^*). Cross-resistance profiles were evaluated by means of the resistance factor (RF), defined as the ratio between IC50 values calculated for the resistant cells and those obtained with the sensitive ones (Table 2). The phenomenon of cisplatin resistance is multifactorial in nature.
as §1
(§2) Human breast (MCF-7), colon (HCT-15), lung (A549) and pancreatic (BxPC3) carcinoma cell lines together with melanoma (A375) cells were obtained from American Type Culture Collection (ATCC, Rockville, MD). The human ovarian cancer cell line 2008 and its cisplatin resistant variant, C13*, were kindly provided by Prof. G. Marverti (Department of Biomedical Science of Modena University, Italy). Human cervical carcinoma (A431) cells were kindly provided by Prof. F. Zunino (Division of Experimental Oncology B, Istituto Nazionale dei Tumori, Milan, Italy). Cell lines were maintained in the logarithmic phase at 37 °C in a 5% carbon dioxide atmosphere using the following culture media containing 10% fetal calf serum (Euroclone, Milan, Italy), antibiotics (50 units/mL penicillin and 50 μg/mL streptomycin) and 2 mM L-glutamine: (i) RPMI-1640 medium (Euroclone) for 2008, C13*, MCF-7, HCT-15, A431 and BxPC3 cells, (ii) F-12 HAM’S (Sigma Chemical Co.) for A549 cells, iii) DMEM (Sigma Chemical Co.) for A375 cells.
(§3) The growth inhibitory effect toward tumor cells was evaluated by means of the MTT assay. Briefly, (3–8) × 10^3 cells/well, dependent upon the growth characteristics of the cell line, were seeded in 96-well microplates in growth medium (100 μL). After 24 h, the medium was removed and replaced with fresh medium containing the compound to be studied at the appropriate concentration. Triplicate cultures were established for each treatment. After 24, 48, or 72 h, each well was treated with 10 μL of a 5 mg/mL MTT saline solution and, after 5 h of incubation, 100 μL of a sodium dodecylsulfate (SDS) solution in 0.01 M HCl was added. After an overnight incubation, cell growth inhibition was detected by measuring the absorbance of each well at 570 nm using a Bio-Rad 680 microplate reader. The mean absorbance for each drug dose was expressed as a percentage of the control, untreated well absorbance and plotted vs drug concentration. The IC50 values, the drug concentrations that decrease the mean absorbance at 570 nm to 50% of that of untreated control wells, were calculated from the dose–response curves with the four-parameter logistic model (4PL). The final value is the mean ± S.D. of at least three independent experiments performed in triplicate.

[3] = system: A375 melanoma cells; experiment: MTT cytotoxicity test, A375; type: cell-based, human; conditions: A375, 72 h, ± S.D.
Description: (§4) The cytotoxic activity of the complexes and of the uncoordinated ligands was evaluated by the MTT test on a panel of human tumor cell lines containing examples of pancreatic (BxPC3), colorectal (HCT-15), breast (MCF-7), cervical (A431), and lung (A549) cancers as well as of melanoma (A375). For comparison purposes, the cytotoxicity of cisplatin was evaluated under the same experimental conditions.
as §1, §2, §3

[4] = system: A375 melanoma cells; experiment: Cellular accumulation of Pt (GF-AAS); type: cell-based, human; conditions: A375, 1.5 and 3 μM, 6 and 24 h
[5] = system: BxPC3 pancreatic carcinoma cells; experiment: MTT cytotoxicity test, BxPC3; type: cell-based, human; conditions: BxPC3, 72 h, MTT, ± S.D.
Description: as §4, §1, §2, §3

[6] = system: panel of human tumor cell lines (BxPC3, HCT-15, MCF-7, A431, A549, A375); experiment: MTT cytotoxicity, mean over panel of human tumor cell lines; type: cell-based; conditions: mean over the six cell lines of Table 1, 72 h
Description: as §4, §3

[7] = system: A549 lung carcinoma cells; experiment: cells; conditions: A549, 72 h, MTT, ± S.D.
Description: as §4, §1, §2, §3

[8] = system: HCT-15 colon carcinoma cells; experiment: MTT cytotoxicity test, HCT-15; type: cell-based, human; conditions: HCT-15, 72 h, MTT, ± S.D.
Description: as §4, §1, §2, §3

[9] = system: MCF-7 breast carcinoma cells; experiment: MTT cytotoxicity test, MCF-7; type: cell-based, human; conditions: MCF-7, 72 h, ± S.D.
Description: as §4, §1, §2, §3

[10] = system: A431 cervical carcinoma cells; experiment: MTT cytotoxicity test, A431; type: cell-based, human; conditions: A431, 72 h, ± S.D.
Description: as §4, §1, §2, §3

[11] = Log P octanol/water, shake flask method with ICP-MS; type: physicochemical; conditions: n-octanol / 0.9% NaCl water, Pt by ICP-MS
Description: Partition coefficients (logP values) for octanol/water partition were determined in order to examine whether a correlation exists between lipophilicity and accumulation into cells. The log P values obtained (Table 3) give the trend in lipophilicity as mono indole acid complex < succinate complex < acetate complex < bis indole acid complex < benzoate complex for both the IAA and the IPA series.
The logP values of the Pt(IV) compounds were determined using the shake flask method. The respective Pt(IV) complex was dissolved in 0.9% NaCl (w/v) ultrapure water (presaturated with n-octanol). The solutions were sonicated and filtered to remove undissolved Pt(IV) compounds. The initial Pt concentrations were determined by ICP-MS. Subsequently, the Pt(IV) solutions were added to an equal volume of n-octanol (presaturated with 0.9% NaCl (w/v) ultrapure water). The heterogeneous mixtures were shaken vigorously for 30 min before centrifuging at 4000 rpm for 30 min to achieve phase separation. The final Pt concentration in the aqueous phase was determined again by ICP-MS. The logarithm of the ratio of Pt concentrations in the organic and aqueous phases was calculated to determine the logP values. All experiments were done in duplicate.

[12] = Stability in physiological saline by mass spectrometry; type: physicochemical; conditions: 0.9% NaCl
Description: Ten indole carboxylic acid Pt(IV) complexes with IAA (indole-3-acetic acid, 1A–5A) and IPA (indole-3-propionic acid, 1P–5P) were synthesized and the structures are depicted in Fig. 3. The monocarboxylato complexes 1A and 1P were prepared by reacting oxoplatin, c,c,t-[Pt(NH3)2Cl2(OH)2], with 0.8 eq. of the activated NHS-ester of the corresponding indole carboxylic acid. The dicarboxylato complexes with two indole acids in axial position (2A and 2P) were obtained using an excess of the NHS-ester activated acid (20 eq.), since the second hydroxo group of oxoplatin is much less reactive than the first one. The unsymmetrically substituted complexes (3A–5A and 3P–5P) were prepared by reaction of the monocarboxylate complexes 1A and 1P with the corresponding anhydrides. We chose three different anhydrides (benzoic, acetic and succinic anhydride) to vary the lipophilicity of the resulting Pt(IV) complexes. All the synthesized Pt(IV) complexes were characterized using elemental analysis, ESI-MS, FT-IR, ^1H and ^195Pt NMR spectroscopy. The purity of the complexes has been assessed through elemental analysis and–where solubility was not an issue–by high performance liquid chromatography (HPLC). The dicarboxylato complexes are poorly soluble in organic solvents. The proton NMR spectra of the complexes in DMSO-d6 show the typical signal of the NH3 protons which is a multiplet at around 6 ppm for the monocarboxylato complexes 1P and 1A (typical ^1JNH and ^2JPtH values around 50 Hz) while it is a broad signal around 6.5 ppm for the bis-substituted complexes (2–5A and 2–5P, Supplementary Information)[44]. The mass spectra of the complexes show a peak in the negative mode with the typical platinum isotope pattern corresponding to M − H^− or M + Cl^−. Stability studies on representative examples of the complexes (1A, 1P, 3A and 3P) via mass spectrometry confirm that the complexes are stable in physiological saline (0.9% NaCl) for at least 48 h (Supplementary Information).
Complexes 1A, 1P, 3A and 3P where dissolved in a minimum amount of DMF and diluted 1:20 with physiological saline (0.9% NaCl). Mass spectra were recorded at t = 0 and after 48 hours.

Q: With [NH2][Pt]([NH2])([Cl])([Cl])([O]C(=O)CCc1c[nH]c2ccccc12)[O]C(=O)c1ccccc1 [Complex 3P] as the molecule, how does the IC50 [1] read?
A: 4.79 ± 0.69 µM

Q: And the IC50 ([2]; C13* cisplatin-resistant, 72 h, MTT, ± S.D.)?
A: 1.47 ± 0.68 µM

Q: And the “RF (resistance factor)” value ([2]; IC50 resistant (C13*) / parent line (2008))?
A: 0.3

Q: What about the IC50 [3] of the same molecule?
A: 1.51 ± 1.25 µM

Q: And the “cellular platinum accumulation (in words)” value [4]?
A: internalized most efficiently

Q: What about the IC50 [5] of the same molecule?
A: 2.92 ± 1.13 µM

Q: What about the IC50 [6] of the same molecule?
A: 2.6 µM

Q: And the IC50 [7]?
A: 0.96 ± 0.06 µM

Q: And the IC50 [8]?
A: 5.94 ± 0.63 µM

Q: What about the IC50 [9] of the same molecule?
A: 2.28 ± 0.46 µM

Q: And the IC50 [10]?
A: 2 ± 0.32 µM

Q: What about the “Log P (octanol/water)” value [11] of the same molecule?
A: −0.028 ± 0.07

Q: What about the “stable in physiological saline” value [12] of the same molecule?
A: at least 48 h
